In PubChem BioAssay AID256 (DTP/NCI, 2004) one finds T/C data, which are given here for four compounds.

The assay deals with CD2F1 mice, L1210 leukemia ip, survival T/C. Description: NCI In Vivo Anticancer Drug Screen. Data for tumor model L1210 Leukemia (intraperitoneal) in CD2F1 (CDF1) mice. Conditions: higher = longer survival. The method, boiled down:
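Ratio T/C, where T is the treated-group value and C the vehicle-dosed control value, from mice implanted with a transplantable tumor.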

[1] abbreviates: endpoint: mean survival time, dose: 100.0 mg/kg/injection, schedule: Q04DX003 (ip), vehicle: Klucel (hydroxypropylcellulose) (HPC).
The mark [2] stands for this setting: endpoint: mean survival time, dose: 200.0 mg/kg/injection, schedule: Q04DX003 (ip), vehicle: Klucel (hydroxypropylcellulose) (HPC).

Values joined by “and” are separate entries in the source; they are usually repeats but may differ in a detail not shown here. Equal values may be shown once. Inconclusive results and toxic doses are left out.

On to `CC1CCC(NC(=O)N(CCCl)N=O)CC1` (configuration not stated), for which the T/C (endpoint: mean survival time, dose: 0.5 mg/kg/injection, schedule: Q01DX009 (ip), vehicle: saline + alcohol) was 96 % of control; the T/C (endpoint: mean survival time, dose: 1.0 mg/kg/injection, schedule: Q01DX009 (ip), vehicle: saline + alcohol) was 109 % of control; the T/C (endpoint: mean survival time, dose: 2.0 mg/kg/injection, schedule: Q01DX009 (ip), vehicle: saline + alcohol) is 109 % of control; the T/C (endpoint: mean survival time, dose: 3.12 mg/kg/injection, schedule: Q01DX001 (ip), vehicle: other) is 105 % of control and 110 % of control; the T/C (endpoint: mean survival time, dose: 3.13 mg/kg/injection, schedule: Q01DX001 (ip), vehicle: saline with Tween-80) is 103 % of control; the T/C (endpoint: mean survival time, dose: 4.0 mg/kg/injection, schedule: Q01DX001 (ip), vehicle: other) is 107 % of control. Also, the T/C is 104 % of control (endpoint: mean survival time, dose: 4.0 mg/kg/injection, schedule: Q01DX001 (ip), vehicle: saline + alcohol); 151 % of control and 185 % of control (endpoint: mean survival time, dose: 4.0 mg/kg/injection, schedule: Q01DX009 (ip), vehicle: saline + alcohol); 192 % of control (endpoint: mean survival time, dose: 5.0 mg/kg/injection, schedule: Q04DX003 (ip), vehicle: other); 98 % of control (endpoint: mean survival time, dose: 6.25 mg/kg/injection, schedule: Q01DX001 (ip), vehicle: saline + alcohol); 114 % of control (endpoint: mean survival time, dose: 6.25 mg/kg/injection, schedule: Q01DX001 (ip), vehicle: saline with Tween-80); 175 % of control and 229 % of control (endpoint: mean survival time, dose: 8.0 mg/kg/injection, schedule: Q01DX009 (ip), vehicle: saline + alcohol). For the same compound, the T/C by setting is: (endpoint: mean survival time, dose: 8.0 mg/kg/injection, schedule: Q08DX002 (ip), vehicle: saline + alcohol) 206 % of control; (endpoint: mean survival time, dose: 10.0 mg/kg/injection, schedule: Q04DX003 (ip), vehicle: other) 371 % of control; (endpoint: mean survival time, dose: 12.5 mg/kg/injection, schedule: Q01DX001 (ip), vehicle: distilled water + Tween-80) 340 % of control; (endpoint: mean survival time, dose: 12.5 mg/kg/injection, schedule: Q01DX001 (ip), vehicle: saline + alcohol) 104 % of control; (endpoint: mean survival time, dose: 16.0 mg/kg/injection, schedule: Q01DX001 (ip), vehicle: other) 283 % of control; (endpoint: mean survival time, dose: 16.0 mg/kg/injection, schedule: Q01DX001 (ip), vehicle: saline + alcohol) 120 % of control. In addition, the T/C (endpoint: mean survival time, dose: 16.0 mg/kg/injection, schedule: Q01DX009 (ip), vehicle: saline + alcohol) was 207 % of control; the T/C (endpoint: mean survival time, dose: 16.0 mg/kg/injection, schedule: Q08DX002 (ip), vehicle: saline + alcohol) was 289 % of control; the T/C (endpoint: mean survival time, dose: 20.0 mg/kg/injection, schedule: Q04DX003 (ip), vehicle: other) is 392 % of control; the T/C (endpoint: mean survival time, dose: 24.0 mg/kg/injection, schedule: Q01DX009 (ip), vehicle: saline + alcohol) is 107 % of control; the T/C (endpoint: mean survival time, dose: 24.0 mg/kg/injection, schedule: Q08DX002 (ip), vehicle: saline + alcohol) was 550 % of control; the T/C (endpoint: mean survival time, dose: 25.0 mg/kg/injection, schedule: Q01DX001 (ip), vehicle: distilled water + Tween-80) was 406 % of control. The T/C (endpoint: mean survival time, dose: 25.0 mg/kg/injection, schedule: Q01DX001 (ip), vehicle: saline + alcohol) is 95 % of control; the T/C (endpoint: mean survival time, dose: 25.0 mg/kg/injection, schedule: Q01DX001 (ip), vehicle: saline with Tween-80) was 393 % of control; the T/C (endpoint: mean survival time, dose: 27.0 mg/kg/injection, schedule: Q01DX001 (ip), vehicle: saline with Tween-80) is 813 % of control; the T/C (endpoint: mean survival time, dose: 32.0 mg/kg/injection, schedule: Q01DX001 (ip), vehicle: other) was 357 % of control; the T/C (endpoint: mean survival time, dose: 32.0 mg/kg/injection, schedule: Q01DX001 (ip), vehicle: saline + alcohol) was 451 % of control; the T/C (endpoint: mean survival time, dose: 32.0 mg/kg/injection, schedule: Q01DX009 (ip), vehicle: saline + alcohol) is 256 % of control and 103 % of control. The T/C (endpoint: mean survival time, dose: 40.0 mg/kg/injection, schedule: Q01DX001 (ip), vehicle: saline with Tween-80) is 555 % of control; the T/C (endpoint: mean survival time, dose: 48.0 mg/kg/injection, schedule: Q01DX009 (ip), vehicle: saline + alcohol) was 96 % of control; the T/C (endpoint: mean survival time, dose: 50.0 mg/kg/injection, schedule: Q01DX001 (ip), vehicle: saline + alcohol) is 158 % of control; the T/C (endpoint: mean survival time, dose: 50.0 mg/kg/injection, schedule: Q01DX001 (ip), vehicle: saline with Tween-80) is 213 % of control and 473 % of control; the T/C (endpoint: mean survival time, dose: 64.0 mg/kg/injection, schedule: Q01DX001 (ip), vehicle: other) was 204 % of control; the T/C (endpoint: mean survival time, dose: 64.0 mg/kg/injection, schedule: Q01DX009 (ip), vehicle: saline + alcohol) was 86 % of control. The T/C reads like this: (endpoint: median survival time, dose: 3.12 mg/kg/injection, schedule: Q01DX001 (ip), vehicle: other) 121 % of control and 110 % of control; (endpoint: median survival time, dose: 3.12 mg/kg/injection, schedule: Q01DX001 (ip), vehicle: saline) 98 % of control and 101 % of control; (endpoint: median survival time, dose: 6.25 mg/kg/injection, schedule: Q01DX001 (ip), vehicle: other) 158 % of control; (endpoint: median survival time, dose: 6.25 mg/kg/injection, schedule: Q01DX001 (ip), vehicle: saline) 98 % of control and 103 % of control; (endpoint: median survival time, dose: 9.0 mg/kg/injection, schedule: Q04DX002 (ip), vehicle: saline + Tween-80 + alcohol) 180 % of control; (endpoint: median survival time, dose: 12.5 mg/kg/injection, schedule: Q01DX001 (ip), vehicle: other) 159 % of control and 297 % of control. Moreover, the T/C was 103 % of control (endpoint: median survival time, dose: 12.5 mg/kg/injection, schedule: Q01DX001 (ip), vehicle: saline); 718 % of control (endpoint: median survival time, dose: 14.4 mg/kg/injection, schedule: Q01DX001 (ip), vehicle: saline + alcohol); 121 % of control (endpoint: median survival time, dose: 14.4 mg/kg/injection, schedule: Q01DX001 (ip), vehicle: saline with Tween-80); 622 % of control (endpoint: median survival time, dose: 14.4 mg/kg/injection, schedule: Q04DX002 (ip), vehicle: saline + alcohol); 351 % of control (endpoint: median survival time, dose: 15.0 mg/kg/injection, schedule: Q04DX002 (ip), vehicle: saline + Tween-80 + alcohol); 581 % of control (endpoint: median survival time, dose: 24.0 mg/kg/injection, schedule: Q01DX001 (ip), vehicle: other). For the same compound, the T/C was 718 % of control (endpoint: median survival time, dose: 24.0 mg/kg/injection, schedule: Q01DX001 (ip), vehicle: saline + alcohol); 623 % of control (endpoint: median survival time, dose: 24.0 mg/kg/injection, schedule: Q04DX002 (ip), vehicle: saline + alcohol); 297 % of control and 340 % of control (endpoint: median survival time, dose: 25.0 mg/kg/injection, schedule: Q01DX001 (ip), vehicle: other); 244 % of control (endpoint: median survival time, dose: 25.0 mg/kg/injection, schedule: Q04DX002 (ip), vehicle: saline + Tween-80 + alcohol); 580 % of control (endpoint: median survival time, dose: 36.0 mg/kg/injection, schedule: Q01DX001 (ip), vehicle: other); 720 % of control (endpoint: median survival time, dose: 40.0 mg/kg/injection, schedule: Q01DX001 (ip), vehicle: saline + alcohol). For the same compound, the T/C is 157 % of control (endpoint: median survival time, dose: 40.0 mg/kg/injection, schedule: Q01DX001 (ip), vehicle: saline with Tween-80); 393 % of control and 590 % of control and 983 % of control (endpoint: median survival time, dose: 40.0 mg/kg/injection, schedule: Q01DX001 (oral), vehicle: saline with Tween-80); 286 % of control (endpoint: median survival time, dose: 40.0 mg/kg/injection, schedule: Q04DX002 (ip), vehicle: saline + alcohol); 170 % of control (endpoint: median survival time, dose: 42.0 mg/kg/injection, schedule: Q04DX002 (ip), vehicle: saline + Tween-80 + alcohol); 158 % of control and 193 % of control (endpoint: median survival time, dose: 50.0 mg/kg/injection, schedule: Q01DX001 (ip), vehicle: other); 193 % of control and 983 % of control (2×) (endpoint: median survival time, dose: 50.0 mg/kg/injection, schedule: Q01DX001 (oral), vehicle: saline with Tween-80). Besides, the T/C (endpoint: median survival time, dose: 60.0 mg/kg/injection, schedule: Q01DX001 (ip), vehicle: other) is 119 % of control; the T/C (endpoint: median survival time, dose: 60.0 mg/kg/injection, schedule: Q01DX001 (oral), vehicle: saline with Tween-80) was 185 % of control and 983 % of control (2×); the T/C (endpoint: median survival time, dose: 66.7 mg/kg/injection, schedule: Q01DX001 (ip), vehicle: saline + alcohol) was 328 % of control; the T/C (endpoint: median survival time, dose: 66.7 mg/kg/injection, schedule: Q01DX001 (ip), vehicle: saline with Tween-80) was 463 % of control; the T/C (endpoint: median survival time, dose: 100.0 mg/kg/injection, schedule: Q01DX001 (ip), vehicle: other) is 116 % of control.
For `Cc1cccc(N=Cc2ccc3c(c2)OCO3)c1`, the T/C by setting is: under setting [1], 100 % of control; under setting [2], 111 % of control.
With `N#Cc1c(F)c(F)c(Oc2c(F)c(F)c(F)c(F)c2F)c(F)c1F`, the T/C by setting is: (endpoint: mean survival time, dose: 100.0 mg/kg/injection, schedule: Q04DX003 (ip), vehicle: saline with Tween-80) 94 % of control; (endpoint: mean survival time, dose: 200.0 mg/kg/injection, schedule: Q04DX003 (ip), vehicle: saline with Tween-80) 91 % of control.
Consider `CC(=O)Nc1c(N=Cc2ccc([N+](=O)[O-])cc2)cc2c3c(cccc13)CC2`, for which the T/C reads like this: (endpoint: mean survival time, dose: 50.0 mg/kg/injection, schedule: Q04DX003 (ip), vehicle: Klucel (hydroxypropylcellulose) (HPC)) 91 % of control; under setting [1], 96 % of control; under setting [2], 94 % of control.
